The values below come from patent US20220241312A1, “COMPOUNDS FOR TREATING CANCER” (Tems Pharmaceuticals, Inc., priority 2019, published 2022).

The target of series [1] is T1, dihydropyrimidine dehydrogenase (DPD) (Homo sapiens, UniProt Q12882).
T1 sequence (Q12882 4-1025): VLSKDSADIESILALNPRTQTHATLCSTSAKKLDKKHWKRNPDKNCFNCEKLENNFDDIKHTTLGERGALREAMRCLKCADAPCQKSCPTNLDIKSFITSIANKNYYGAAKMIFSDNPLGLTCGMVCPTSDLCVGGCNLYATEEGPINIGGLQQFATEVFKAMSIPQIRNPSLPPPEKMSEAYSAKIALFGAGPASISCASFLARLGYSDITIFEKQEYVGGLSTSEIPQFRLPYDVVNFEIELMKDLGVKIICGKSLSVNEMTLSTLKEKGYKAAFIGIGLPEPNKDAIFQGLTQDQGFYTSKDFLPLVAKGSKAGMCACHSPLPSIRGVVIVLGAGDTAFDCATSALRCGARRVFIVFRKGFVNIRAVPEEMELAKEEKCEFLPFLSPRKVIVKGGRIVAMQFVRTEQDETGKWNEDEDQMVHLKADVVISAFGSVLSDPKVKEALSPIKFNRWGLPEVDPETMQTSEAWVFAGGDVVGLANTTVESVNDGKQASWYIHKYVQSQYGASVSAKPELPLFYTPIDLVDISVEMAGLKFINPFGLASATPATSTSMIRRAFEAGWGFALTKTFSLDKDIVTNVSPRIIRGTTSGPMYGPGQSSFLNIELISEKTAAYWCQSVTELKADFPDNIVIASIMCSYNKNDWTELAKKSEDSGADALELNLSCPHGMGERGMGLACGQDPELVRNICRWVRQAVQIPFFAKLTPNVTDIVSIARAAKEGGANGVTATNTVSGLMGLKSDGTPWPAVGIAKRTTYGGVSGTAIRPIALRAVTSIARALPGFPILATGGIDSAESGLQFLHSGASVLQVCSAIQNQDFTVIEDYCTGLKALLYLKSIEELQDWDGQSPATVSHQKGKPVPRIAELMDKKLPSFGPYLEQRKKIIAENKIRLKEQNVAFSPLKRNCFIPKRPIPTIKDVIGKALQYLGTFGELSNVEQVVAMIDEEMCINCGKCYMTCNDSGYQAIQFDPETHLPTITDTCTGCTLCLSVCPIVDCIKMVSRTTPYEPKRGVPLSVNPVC
Conditions: background statement; cited from earlier work.

For series [2], the system named is gastric cancer cell line NCI-N-87-luc. As to the kind of experiment: Cytotoxicity assay (CellTiter Glo), NCI-N-87-luc. The series is classed as cell-based. The note with it: 72 h or 120 h incubation, Compound No. 1 tested as TEA salt. The procedure: (§1) Cytotoxicity of the test compounds were determined for multiple cell lines including gastric cancer cell lines NCI-N-87-luc and MKN45; liver cancer cell lines HepG2, Hep3B, and Huh7; pancreatic cell lines MIAPACA-2 and PANC-1; and colon cancer cell lines HT-29 and HCT-116.
(§2) Test compounds were prepared as 10 mM stock solutions. 5-FU, the control compound, was also prepared as a 10 mM stock solution. 45 μL of stock solution was transferred to a 384 polypropylene plate. The test and control compounds were then serially diluted 3 fold 10 times by transferring 15 μL compound solution into 30 μL DMSO by using TECAN (EVO200) liquid handler. […]
(§3) For each cell line assayed, cells were grown in a flask and then were harvested from the flask into cell culture medium. The cell number was counted and the cells were diluted with cell culture medium to the 2.5*10^4 cells/mL. […]
(§4) The cell culture plates were covered with a lid, placed at room temperature for 30 min without shaking, and transferred into a 37° C. […] On the desired day, cytotoxicity of the compounds was detected using CellTiter Glo. […] 40 μL of CellTiter-Glo reagent was added into each well to be detected (at 1:1 to culture medium). The plates were placed at room temperature for 30 min and then luminescence was detected using an EnSpire plate reader. […]

For series [3], the system named is liver cancer cell line Huh7. As to the kind of experiment: Cytotoxicity assay (CellTiter Glo), Huh7. Format: cell-based. The note with it: Homo sapiens, Huh-7, 72 h or 120 h incubation, Compound No. 1 tested as TEA salt. The procedure:
as §1, §2, §3, §4
(ATP-based viability assays read luminescence as a measure of living cells.)

In series [4] the test system is colon cancer cell line HT-29. The series can be described thus: Cytotoxicity assay (CellTiter Glo), HT-29. Format: cell-based. Conditions: Homo sapiens, 72 h or 120 h incubation, Compound No. 1 tested as TEA salt. Here is the method: as §1, §2, §3, §4
In series [5] the test system is liver cancer cell line Hep3B. The series can be described thus: Cytotoxicity assay (CellTiter Glo), Hep3B. The series is classed as cell-based. Conditions: Homo sapiens, 72 h or 120 h incubation, Compound No. 1 tested as TEA salt. Here is the method:
as §1, §2, §3, §4

For series [6], the system named is pancreatic cell line PANC-1. The series can be described thus: Cytotoxicity assay (CellTiter Glo), PANC-1. The series is classed as cell-based. Conditions: Homo sapiens, 72 h or 120 h incubation, Compound No. 1 tested as TEA salt. The procedure: as §1, §2, §3, §4
The test system of series [7] is gastric cancer cell line MKN45. As to the kind of experiment: Cytotoxicity assay (CellTiter Glo), MKN45. Format: cell-based. The note with it: Homo sapiens, MKN-45, 72 h or 120 h incubation, Compound No. 1 tested as TEA salt. Here is the method:
as §1, §2, §3, §4

The test system of series [8] is colon cancer cell line HCT-116. As to the kind of experiment: Cytotoxicity assay (CellTiter Glo), HCT-116. Format: cell-based. Conditions: Homo sapiens, 72 h or 120 h incubation, Compound No. 1 tested as TEA salt. Here is the method: as §1, §2, §3, §4
Series [9] has as its system liver cancer cell line HepG2. The series can be described thus: Cytotoxicity assay (CellTiter Glo), HepG2. The series is classed as cell-based. Conditions: Homo sapiens, 72 h or 120 h incubation, Compound No. 1 tested as TEA salt. Here is the method:
as §1, §2, §3, §4

For series [10], the system named is pancreatic cell line MIAPACA-2. The series can be described thus: Cytotoxicity assay (CellTiter Glo), MIAPACA-2. Format: cell-based. Conditions: Homo sapiens, MIA PaCa-2, 72 h or 120 h incubation, Compound No. 1 tested as TEA salt. The procedure:
as §1, §2, §3, §4

Where a name gives a salt, the structure may show the parent alone.

For orientation: CC50 means the concentration at which the toxic effect on the cells reaches its halfway point.

Consider `O=c1[nH]cc(F)c(=O)[nH]1` [5-FU, 5-Fluorouracil], for which the “fraction catabolized by dihydropyrimidine dehydrogenase (DPD) to pharmacodynamically inactive metabolites” value in [1] was 80-85%. Also, the CC50 in series [2] was 3.99 µM; in series [3], 7.3 µM; in [4], 14.8 µM; in series [5], 3.67 µM; in [6] it was 8.26 µM; in series [7], 1.68 µM. Moreover, the half-maximal cytotoxic concentration (CC50) in series [8] was found to be 6.79 µM; in [9], 1.74 µM; in series [10], 13.1 µM.

Take `CC(C)OC(=O)OCn1c(=O)c(F)cn([C@H]2C[C@@H]3OP(=O)(O)OC[C@H]3O2)c1=O` [Compound No. 1, (4aR,6R,7aS)-6-(5-fluoro-3-(((isopropoxycarbonyl)oxy)methyl)-2,4-dioxo-3,4-dihydropyrimidin-1(2H)-yl)tetrahydro-4H-furo[3,2-d][1,3,2]dioxaphosphinin-2-olate 2-oxide triethylamine salt]: the CC50 was found to be 0.515 µM in series [2]; 0.013 µM in series [3]; 0.015 µM in series [4]; 0.045 µM in [5]; 0.706 µM in [6]; 0.021 µM in series [7]. The CC50 in [8] came to 0.411 µM; in [9], 0.314 µM; in series [10], 0.06 µM.
